Assay results taken from US20250136570A1 (Tango Therapeutics, Inc., priority 2021, published 2025).
pIC50: −log10 of the molar value.

Key:
[1] = molecular target: Recombinant HDAC1 (Homo sapiens (Human), UniProt Q13547); experiment: HDAC1 inhibition, Fluor de Lys fluorescent enzyme assay; type: biochemical; settings: 3 hours pre-incubation at room temp; 6 nM enzyme; 16 μM Fluor de Lys substrate; duplicate
Excerpt: (§1) Recombinant HDAC1 (cat #: 50051) and HDAC3/NCor2 (cat #: 50003) enzymes were purchased from BPS Bioscience (San Diego, CA, US). Assay reagents for the detection of HDAC enzyme activity (Fluor de Lys®—Green substrate and Developer kits) were purchased from Enzo Life Science (Farmingdale, NY, US). Plates used to conduct the enzyme reaction were Proxiplate-384 (cat #: 6008280) Plus from PerkinElmer (Waltham, MA, US). TSA, an HDAC inhibitor, was purchased from Enzo Life Science (cat #BML-GR309-9090) The remainder of the reagents used to prepare the assay buffer were purchased from Sigma-Aldrich (St Louis, MO, US). Unless stated otherwise, HDAC1 and 3 assays were conducted in 50 mM Tris buffer, pH 8, 137 mM NaCl, 2.7 mM KCl, 0.01% BSA.
(§2) IC50 determination for HDAC1 and HDAC3—Prior to adding reagents, 50 nL/well of compound were added to Proxiplates using an Echo dispenser instrument (Beckman Coulter, CA, US). After addition of compound, 2.5 μL/well of 2× enzyme solution was added and the enzyme was pre-incubated with compound for 3 hours at room temp. (˜22° C.). After the pre-incubation period, the enzyme reaction was initiated by adding 2.5 μL/well of 2× Fluor de Lys® substrate solution. The assay reaction was stopped after one hour by adding 5 μl/well of a 0.66× Developer solution containing TSA (3.2 μM). The final product of the enzyme reaction was read using a Spectramax plate reader instrument (Molecular Devices, CA, US) using a fluorescent readout (Ex 360 nm/Em 460 nm). The final enzyme concentrations in the assay buffer for HDAC1 and 3 were 6 and 1.2 nM, respectively. The final Fluor de Lys® substrate concentration in the assay buffer was 16 μM for all HDAC enzymes. IC50 values were determined using the following equation: […]
(§3) Where Efree and Eo are the free and total amount of HDAC enzyme in the reaction mixture, n is the hill coefficient, I is the free inhibitor concentration, and IC50 is the measure of the potency equivalent to the inhibitor concentration that leads to a 50% occupancy of the total enzyme. Each data was generated in duplicate.

[2] = molecular target: HDAC3/NCor2 (Homo sapiens (Human), UniProt O15379); experiment: HDAC3 inhibition, Fluor de Lys fluorescent enzyme assay; type: biochemical; settings: 3 hours pre-incubation at room temp; 1.2 nM enzyme; 16 μM Fluor de Lys substrate; duplicate
Sequence of HDAC3/NCor2 (O15379 whole entry): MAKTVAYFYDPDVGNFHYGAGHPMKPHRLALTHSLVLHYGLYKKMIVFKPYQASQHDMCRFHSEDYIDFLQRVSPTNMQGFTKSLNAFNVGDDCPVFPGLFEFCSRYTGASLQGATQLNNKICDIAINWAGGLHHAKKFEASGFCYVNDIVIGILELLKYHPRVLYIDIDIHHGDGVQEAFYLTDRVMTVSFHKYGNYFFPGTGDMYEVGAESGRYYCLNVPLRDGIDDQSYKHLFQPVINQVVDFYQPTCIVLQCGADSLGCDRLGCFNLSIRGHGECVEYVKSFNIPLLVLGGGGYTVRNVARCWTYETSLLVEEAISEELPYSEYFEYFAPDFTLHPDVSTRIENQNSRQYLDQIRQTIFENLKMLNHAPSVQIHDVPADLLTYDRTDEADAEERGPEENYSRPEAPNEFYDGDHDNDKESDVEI
Sequence of HDAC3/NCor2 (Q9Y618 395-489 partner): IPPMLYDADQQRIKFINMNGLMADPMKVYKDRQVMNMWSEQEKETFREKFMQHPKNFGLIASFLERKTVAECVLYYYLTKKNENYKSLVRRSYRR
Excerpt: as §1, §2, §3

Sequence of Recombinant HDAC1 (Q13547 whole entry): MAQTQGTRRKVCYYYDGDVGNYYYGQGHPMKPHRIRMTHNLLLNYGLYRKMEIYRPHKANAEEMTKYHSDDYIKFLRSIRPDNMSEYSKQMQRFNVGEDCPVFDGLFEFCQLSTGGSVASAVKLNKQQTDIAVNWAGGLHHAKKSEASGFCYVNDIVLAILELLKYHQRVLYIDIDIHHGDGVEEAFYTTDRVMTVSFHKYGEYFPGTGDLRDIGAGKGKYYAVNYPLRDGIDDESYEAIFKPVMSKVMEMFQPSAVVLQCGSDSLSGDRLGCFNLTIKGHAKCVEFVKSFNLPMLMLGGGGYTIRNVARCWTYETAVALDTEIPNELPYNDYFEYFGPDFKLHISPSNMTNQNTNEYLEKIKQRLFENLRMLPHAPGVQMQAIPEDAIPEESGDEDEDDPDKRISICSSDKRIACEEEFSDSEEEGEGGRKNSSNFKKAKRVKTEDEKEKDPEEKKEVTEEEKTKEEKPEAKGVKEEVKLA

Compound	pIC50 [1]	pIC50 [2]
CS(=N)(=O)c1ccc(C(=O)Nc2cc(-c3ccc(F)s3)ccc2N)nn1 (stereo not shown) [Compound 152, N-[2-amino-5-(5-fluoro-2-thienyl)phenyl]-6-(methylsulfonimidoyl)pyridazine-3-carboxamide]	> 7.00	6.30 to 7.00
CS(=N)(=O)C1(c2ccc(C(=O)Nc3cc(-c4cccs4)ccc3N)cc2)CC1 (stereo not shown) [Compound 140, N-[2-amino-5-(2-thienyl)phenyl]-4-[1-(methylsulfonimidoyl)cyclopropyl]benzamide]	> 7.00	5.70 to 6.30
CS(=N)(=O)c1ccc(C(=O)Nc2cc(-c3cncnc3)ccc2N)cc1 (stereo not shown) [Compound 151, N-(2-amino-5-pyrimidin-5-yl-phenyl)-4-(methylsulfonimidoyl)benzamide]	< 5.70	< 5.70
N=S(=O)(c1ccccn1)c1ccc(C(=O)Nc2cc(-c3ccc(F)cc3)ccc2N)cn1 (stereo not shown) [Compound 175, N-[2-amino-5-(4-fluorophenyl)phenyl]-6-(2-pyridylsulfonimidoyl)pyridine-3-carboxamide]	> 7.00	5.70 to 6.30
Cc1ccc(-c2ccc(N)c(NC(=O)c3ccc(S(C)(=N)=O)cc3)c2)s1 (stereo not shown) [Compound 139, N-[2-amino-5-(5-methyl-2-thienyl)phenyl]-4-(methylsulfonimidoyl)benzamide]	> 7.00	< 5.70
N=S(=O)(c1ccc2sc(C(=O)Nc3cc(-c4ccc(F)cc4)ccc3N)cc2c1)C1CC1 (stereo not shown) [Compound 224, N-[2-amino-5-(4-fluorophenyl)phenyl]-5-(cyclopropylsulfonimidoyl)benzothiophene-2-carboxamide]	> 7.00	5.70 to 6.30
N=S(=O)(c1ccc(C(=O)Nc2cc(-c3ccc(F)cc3)ccc2N)cc1)c1cnccc1C1CC1 (stereo not shown) [Compound 191, N-[2-amino-5-(4-fluorophenyl)phenyl]-4-[(4-cyclopropyl-3-pyridyl)sulfonimidoyl]benzamide]	> 7.00	5.70 to 6.30
N=S(=O)(c1ccc(C(=O)Nc2cc(-c3ccc(F)cc3)ccc2N)cc1)c1cccc(F)c1 (stereo not shown) [Compound 216, N-[2-amino-5-(4-fluorophenyl)phenyl]-4-[(3-fluorophenyl)sulfonimidoyl]benzamide]	> 7.00	5.70 to 6.30
N=[S@](=O)(c1ccc(C(=O)Nc2cc(-c3ccc(F)cc3)ccc2N)cc1)C1CC1 (single isomer, unassigned) [Compound 145]	> 7.00	5.70 to 6.30
CS(=N)(=O)c1ccc(C(=O)Nc2cc(-c3ccc(F)cc3)ccc2N)s1 (stereo not shown) [Compound 161, N-[2-amino-5-(4-fluorophenyl)phenyl]-5-(methylsulfonimidoyl)thiophene-2-carboxamide]	> 7.00	6.30 to 7.00
N=[S@@](=O)(c1ccc(C(=O)Nc2cc(-c3ccc(F)cc3)ccc2N)cc1)c1ccccn1 (single isomer, unassigned) [Compound 212]	> 7.00	5.70 to 6.30
CS(=N)(=O)c1ccc(C(=O)Nc2cc(-c3ccc(F)cc3F)ccc2N)cc1 (stereo not shown) [Compound 117, N-[2-amino-5-(2,4-difluorophenyl)phenyl]-4-(methylsulfonimidoyl)benzamide]	> 7.00	< 5.70
CC(C)(C)C(=O)N=S(C)(=O)c1ccc(C(=O)Nc2cc(-c3cccs3)ccc2N)cc1 (stereo not shown) [Compound 125, N-[2-amino-5-(2-thienyl)phenyl]-4-[N-(2,2-dimethylpropanoyl)-S-methyl-sulfonimidoyl]benzamide]	> 7.00	5.70 to 6.30
CS(=N)(=O)Cc1ccc2oc(C(=O)Nc3cc(-c4ccc(F)cc4)ccc3N)cc2c1 (stereo not shown) [Compound 170, N-[2-amino-5-(4-fluorophenyl)phenyl]-5-[(methylsulfonimidoyl)methyl]benzofuran-2-carboxamide]	> 7.00	5.70 to 6.30
CS(=N)(=O)c1ccc(C(=O)Nc2cc(C#CC3CC3)ccc2N)cc1 (stereo not shown) [Compound 155, N-[2-amino-5-(2-cyclopropylethynyl)phenyl]-4-(methylsulfonimidoyl)benzamide]	< 5.70	< 5.70
CS(=N)(=O)c1ccc(C(=O)Nc2cc(-c3ccc(Cl)cc3)ccc2N)cc1 (stereo not shown) [Compound 182, N-[2-amino-5-(4-chlorophenyl)phenyl]-4-(methylsulfonimidoyl)benzamide]	> 7.00	< 5.70
Nc1ccc(-c2ccc(F)cc2)cc1NC(=O)c1ccc([S@@]2(=O)=N[C@@H](c3ccccc3)CC2)cc1 (racemic) [Compound 229, rac-N-(4-amino-4′-fluoro-[1,1′-biphenyl]-3-yl)-4-((1R,3R)-1-oxido-3-phenyl-4,5-dihydro-3H-1λ^6-isothiazol-1-yl)benzamide]	> 7.00	< 5.70

Compound	pIC50 [1]	pIC50 [2]
N=S(=O)(c1ccc(C(=O)Nc2cc(-c3ccc(F)cc3)ccc2N)cc1)c1ccc(F)cn1 (stereo not shown) [Compound 247, N-[2-amino-5-(4-fluorophenyl)phenyl]-4-[(5-fluoro-2-pyridyl)sulfonimidoyl]benzamide]	> 7.00	5.70 to 6.30
N=S(=O)(c1ccc(C(=O)Nc2cc(-c3ccc(F)cc3F)ccc2N)cc1)C1CC1 (stereo not shown) [Compound 118, N-[2-amino-5-(2,4-difluorophenyl)phenyl]-4-(cyclopropylsulfonimidoyl)benzamide]	> 7.00	5.70 to 6.30
CS(=N)(=O)c1ccc(C(=O)Nc2cc(-c3cccnn3)ccc2N)cc1 (stereo not shown) [Compound 157, N-(2-amino-5-pyridazin-3-yl-phenyl)-4-(methylsulfonimidoyl)benzamide]	> 7.00	< 5.70
Cc1ncc(S(=N)(=O)c2ccc(C(=O)Nc3cc(-c4ccc(F)cc4)ccc3N)cc2)[nH]1 (stereo not shown) [Compound 217, N-[2-amino-5-(4-fluorophenyl)phenyl]-4-[(2-methyl-1H-imidazol-5-yl)sulfonimidoyl]benzamide]	> 7.00	6.30 to 7.00
CS(=N)(=O)c1ccc(C(=O)Nc2cc(-c3ccsc3)ccc2N)cc1 (stereo not shown) [Compound 249, N-[2-amino-5-(3-thienyl)phenyl]-4-(methylsulfonimidoyl)benzamide]	> 7.00	5.70 to 6.30
Cc1cccc(S(=N)(=O)c2ccc(C(=O)Nc3cc(-c4ccc(F)cc4)ccc3N)cc2)n1 (stereo not shown) [Compound 215, N-[2-amino-5-(4-fluorophenyl)phenyl]-4-[(6-methyl-2-pyridyl)sulfonimidoyl]benzamide]	> 7.00	5.70 to 6.30
N=S(=O)(c1ccc(C(=O)Nc2cc(-c3ccc(F)cc3)ccc2N)cc1)c1ccc(C(F)(F)F)cc1 (stereo not shown) [Compound 256, N-[2-amino-5-(4-fluorophenyl)phenyl]-4-[[4-(trifluoromethyl)phenyl]sulfonimidoyl]benzamide]	> 7.00	< 5.70
CS(=N)(=O)c1ccc(C(=O)Nc2cc(-c3ccc(F)s3)ccc2N)cc1 (stereo not shown) [Compound 109, N-[2-amino-5-(5-fluoro-2-thienyl)phenyl]-4-(methylsulfonimidoyl)benzamide]	> 7.00	5.70 to 6.30
Nc1ccc(-c2ccc(F)cc2)cc1NC(=O)c1cc2cc(S3(=O)=NCCC3)ccc2s1 (stereo not shown) [Compound 204]		5.70 to 6.30
Nc1ccc(-c2ccc(F)cc2)cc1NC(=O)c1ccc(S2(=O)=NCCC2)cc1 (stereo not shown) [Compound 154, N-[2-amino-5-(4-fluorophenyl)phenyl]-4-(1-oxo-4,5-dihydro-3H-isothiazol-1-yl)benzamide]		5.70 to 6.30
Nc1ccc(-c2cccs2)cc1NC(=O)c1ccc(S2(=O)=NCCC2)cc1 (stereo not shown) [Compound 126, N-[2-amino-5-(2-thienyl)phenyl]-4-(1-oxo-4,5-dihydro-3H-isothiazol-1-yl)benzamide]		5.70 to 6.30
N=S(=O)(c1ccc(C(=O)Nc2cc(-c3ccc(F)cc3)ccc2N)cc1)c1ccc(Cl)cn1 (stereo not shown) [Compound 213]		5.70 to 6.30
CS(=N)(=O)Cc1ccc(C(=O)Nc2cc(-c3ccc(F)cc3)ccc2N)cn1 (stereo not shown) [Compound 201]		5.70 to 6.30
Nc1ccc(-c2ccc(F)s2)cc1NC(=O)c1ccc(S2(=O)=NCCC2)cc1 (stereo not shown) [Compound 160, N-[2-amino-5-(5-fluoro-2-thienyl)phenyl]-4-(1-oxo-4,5-dihydro-3H-isothiazol-1-yl)benzamide]		5.70 to 6.30
Nc1ccc(-c2ccc(F)cc2)cc1NC(=O)c1ccc(S2(=O)=NCCC2)nc1 (stereo not shown) [Compound 178, N-[2-amino-5-(4-fluorophenyl)phenyl]-6-(1-oxo-4,5-dihydro-3H-isothiazol-1-yl)pyridine-3-carboxamide]		5.70 to 6.30
Nc1ccc(-c2ccc(F)cc2)cc1NC(=O)c1ccc(S2(=O)=NCCCC2)cc1 (stereo not shown) [Compound 243, N-[2-amino-5-(4-fluorophenyl)phenyl]-4-(1-oxo-1thia-2-azacyclohexen-1-yl)benzamide]		5.70 to 6.30
